Reference: BindingDB's records for doi:10.1124/mol.64.4.865 (The Danish University of Pharmaceutical Sciences, 2003)
Several values for one entry are separate records, joined by “and”; a condition that tells them apart may be missing. Equal values may be shown once.

Key:
[1] = molecular target: Neuronal acetylcholine receptor subunit alpha-4 (Rattus norvegicus, UniProt P09483)
[2] = molecular target: Neuronal acetylcholine receptor subunit alpha-7 (Rattus norvegicus, UniProt Q05941)
[3] = molecular target: Neuronal acetylcholine receptor subunit alpha-3 (Rattus norvegicus, UniProt P04757)
Sequence of Neuronal acetylcholine receptor subunit alpha-3 (P04757 whole entry): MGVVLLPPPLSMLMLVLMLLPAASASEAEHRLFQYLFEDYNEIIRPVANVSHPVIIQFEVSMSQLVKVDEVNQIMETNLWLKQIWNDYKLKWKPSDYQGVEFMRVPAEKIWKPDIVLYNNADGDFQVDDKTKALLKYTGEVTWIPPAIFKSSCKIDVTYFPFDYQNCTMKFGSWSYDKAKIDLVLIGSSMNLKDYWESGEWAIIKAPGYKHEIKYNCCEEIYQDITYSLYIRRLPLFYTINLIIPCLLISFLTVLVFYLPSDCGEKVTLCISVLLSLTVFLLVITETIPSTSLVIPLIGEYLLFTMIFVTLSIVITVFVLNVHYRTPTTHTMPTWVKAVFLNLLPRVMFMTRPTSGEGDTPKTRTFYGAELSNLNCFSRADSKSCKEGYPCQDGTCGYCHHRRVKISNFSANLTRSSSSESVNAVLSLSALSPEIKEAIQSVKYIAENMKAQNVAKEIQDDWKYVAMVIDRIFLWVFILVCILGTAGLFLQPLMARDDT

[4] = molecular target: T1, Muscarinic acetylcholine receptor M2 (Rattus norvegicus, UniProt P10980)
T1 sequence (P10980 whole entry): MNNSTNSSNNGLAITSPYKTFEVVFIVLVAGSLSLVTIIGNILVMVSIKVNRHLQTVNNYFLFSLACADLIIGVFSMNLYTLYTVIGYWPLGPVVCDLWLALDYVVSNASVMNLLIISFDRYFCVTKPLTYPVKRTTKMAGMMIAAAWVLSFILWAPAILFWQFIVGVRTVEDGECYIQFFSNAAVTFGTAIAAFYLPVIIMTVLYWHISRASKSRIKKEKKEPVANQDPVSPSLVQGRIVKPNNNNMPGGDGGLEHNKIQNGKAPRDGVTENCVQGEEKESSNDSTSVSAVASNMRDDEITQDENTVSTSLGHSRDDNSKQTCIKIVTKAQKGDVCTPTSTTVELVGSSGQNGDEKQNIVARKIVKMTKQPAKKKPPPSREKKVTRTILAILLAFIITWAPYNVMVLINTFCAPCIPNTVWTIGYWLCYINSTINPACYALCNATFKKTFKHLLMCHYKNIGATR

[5] = molecular target: Nicotinic acetylcholine receptor (Rattus leucopus, UniProt Q62594)
Sequence of Nicotinic acetylcholine receptor (Q62594 whole entry): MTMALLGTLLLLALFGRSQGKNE

Sequence of Neuronal acetylcholine receptor subunit alpha-7 (Q05941 whole entry): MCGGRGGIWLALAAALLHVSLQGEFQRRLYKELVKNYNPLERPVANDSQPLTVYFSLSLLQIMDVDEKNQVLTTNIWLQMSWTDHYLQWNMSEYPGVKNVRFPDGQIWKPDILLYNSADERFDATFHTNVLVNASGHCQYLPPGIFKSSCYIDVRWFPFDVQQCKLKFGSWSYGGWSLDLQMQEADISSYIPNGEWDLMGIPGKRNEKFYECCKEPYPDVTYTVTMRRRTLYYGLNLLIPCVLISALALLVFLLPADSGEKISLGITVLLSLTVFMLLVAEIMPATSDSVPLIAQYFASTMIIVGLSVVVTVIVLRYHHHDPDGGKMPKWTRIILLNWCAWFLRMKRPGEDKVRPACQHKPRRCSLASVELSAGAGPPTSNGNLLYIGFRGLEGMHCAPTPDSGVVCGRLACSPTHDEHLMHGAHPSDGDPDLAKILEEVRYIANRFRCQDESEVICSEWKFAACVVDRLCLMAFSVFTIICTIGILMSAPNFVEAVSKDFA
Sequence of Neuronal acetylcholine receptor subunit alpha-4 (P09483 whole entry): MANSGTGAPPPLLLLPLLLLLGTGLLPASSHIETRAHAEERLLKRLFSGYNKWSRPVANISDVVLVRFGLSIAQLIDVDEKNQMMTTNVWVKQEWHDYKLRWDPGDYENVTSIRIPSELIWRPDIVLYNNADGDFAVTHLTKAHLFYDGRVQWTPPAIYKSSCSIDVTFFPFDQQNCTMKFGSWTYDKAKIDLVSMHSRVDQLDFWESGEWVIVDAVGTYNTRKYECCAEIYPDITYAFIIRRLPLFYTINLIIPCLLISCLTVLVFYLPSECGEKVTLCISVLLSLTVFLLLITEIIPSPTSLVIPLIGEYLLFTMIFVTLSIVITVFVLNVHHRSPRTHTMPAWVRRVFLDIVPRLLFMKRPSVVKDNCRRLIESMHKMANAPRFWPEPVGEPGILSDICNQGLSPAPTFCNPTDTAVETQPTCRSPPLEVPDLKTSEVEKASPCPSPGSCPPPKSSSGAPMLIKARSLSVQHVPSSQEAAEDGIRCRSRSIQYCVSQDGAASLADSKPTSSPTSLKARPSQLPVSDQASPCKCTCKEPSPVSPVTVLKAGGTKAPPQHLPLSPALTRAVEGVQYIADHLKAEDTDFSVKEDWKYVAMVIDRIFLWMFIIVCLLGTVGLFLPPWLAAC

| Compound | Ki [1] | Ki [2] [nM] | Ki [3] [nM] | Ki [4] [nM] | Ki [5] [nM] |
| --- | --- | --- | --- | --- | --- |
| C[C@H](CCOC(=O)N(C)C)N(C)C [3-N,N-dimethylaminobutyl-N,N-dimethylcarbamate] | 17 nM and 66 nM | > 10000 | 370 | 3600 | 9 |
| O=c1cccc2n1CC1CNCC2C1 (stereo unspecified) [CAS_485-35-8] | 1.3 nM and 6.8 nM | > 10000 | 130 | – | – |
| CN(C)C(=O)OCC[N+](C)(C)C [CAS_84607] | – | – | – | 1200 | 20 |
| CN(C)CCOC(=O)N(C)C [DMCAE] | – | – | – | > 10000 | 5700 |
| COC(=O)Nc1ccc(Cl)c(Cl)c1 [SWEP] | – | > 10000 | 2700 | 150 | 23 |
